Data published in patent US11076595B2, “1-(n,n-disubstituted carbamoyl) 4-(substituted sulfonyl)triazolin-5-one derivative, 4-(n,n-disubstituted carbamoyl) 1-(substituted sulfonyl)triazolin-5-one derivative, and herbicide containing said derivative as active ingredient” (HOKKO CHEMICAL INDUSTRY CO., LTD., priority 2017, dated 2021).

Experiments:
Assay type in all cases: in vivo
[1] = system: Amaranthus viridis; experiment: Test Example 4: herbicidal effect test by foliage treatment in upland field; conditions: upland field foliage treatment 7 days after sowing; 120 g/10a; evaluated 14 days after treatment
Procedure: (§1) This test was performed with two replications per one formulation concentration plot, and 14 days after the formulation treatments, the weed suppression rate (%) was determined according to the following equation (Math. 1). Weed suppression rate (%)=(1−an average dry weight (g) of plants in treated plots/an average dry weight (g) of plants in untreated plots)×100 [Math. 1]
(§2) A pot having a size of 36 cm^2 was filled with field soil (alluvial soil) and after uniformly mixing the soil of the surface layer of 1 cm with 20 grains of each weed seed of crabgrass, Echinochloa crus-galli, Chenopodium album and Amaranthus viridis, the surface layer was pressed lightly. Seven days after the sowing, an emulsifiable concentrate prepared according to Formulation Example 5 by using the compound shown in Table 8 below was diluted with water, and the water-diluted formulation was sprayed on the soil surface at a ratio of 100 liter per 10 are. The application rate of the active ingredient, by conversion, corresponded to 120 g per 10 are. Fourteen days after the formulation treatment, the herbicidal effect was evaluated by the same criteria as in Test Example 1.

[2] = system: Chenopodium album; experiment: as above; conditions: upland field foliage treatment 7 days after sowing; 120 g/10a; evaluated 14 days after treatment
Procedure: as §1, §2

[3] = system: crabgrass; experiment: as above; conditions: upland field foliage treatment 7 days after sowing; 120 g/10a; evaluated 14 days after treatment
Procedure: as §1, §2

[4] = system: Echinochloa crus-galli; experiment: as above; conditions: upland field foliage treatment 7 days after sowing; 120 g/10a; evaluated 14 days after treatment
Procedure: as §1, §2

[5] = system: Lindernia pyxidaria; experiment: Test Example 1: herbicidal effect test by soil treatment in paddy field; conditions: 120 g/10a, paddy soil treatment just after sowing, 14 days after treatment
How it was run: (§3)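 Weed suppression (%) was calculated at 14 days from mean plant dry weight relative to untreated pots, with duplicate pots per rate. The compound went into the flood water as a diluted emulsifiable concentrate (120 g a.i./10 are) immediately after sowing seeds 0–1 cm deep. Pots held ~3 cm water in a glasshouse.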

[6] = system: Scirpus juncoides; experiment: as above; conditions: 120 g/10a, paddy soil treatment just after sowing, 14 days after treatment
How it was run: as §3

[7] = system: Monochoria vaginalis; experiment: as above; conditions: 120 g/10a, paddy soil treatment just after sowing, 14 days after treatment
How it was run: as §3

[8] = system: Echinochloa crus-galli; experiment: as above; conditions: 120 g/10a, paddy soil treatment just after sowing, 14 days after treatment
How it was run: as §3

[9] = system: Lindernia pyxidaria; experiment: Test Example 2: herbicidal effect test by treatment during growing period in paddy field; conditions: treatment 7 days after sowing, 120 g/10a, evaluated 14 days after treatment
How it was run: (§4)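 Paddy soil in Wagner pots, flooded to ~3 cm; 30 seeds per species sown 0–1 cm deep, greenhouse-grown. Emulsifiable concentrate diluted in water and dripped into flood water 7 days after sowing at 120 g active ingredient per 10 are. Dry-weight suppression vs untreated assessed 14 days post-treatment, two replicates.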

[10] = system: Scirpus juncoides; experiment: as above; conditions: treatment 7 days after sowing, 120 g/10a, evaluated 14 days after treatment
How it was run: as §4

[11] = system: Monochoria vaginalis; experiment: as above; conditions: treatment 7 days after sowing, 120 g/10a, evaluated 14 days after treatment
How it was run: as §4

[12] = system: Echinochloa crus-galli; experiment: as above; conditions: treatment 7 days after sowing, 120 g/10a, evaluated 14 days after treatment
How it was run: as §4

[13] = system: Amaranthus viridis; experiment: Test Example 3: herbicidal effect test by soil treatment in upland field; conditions: upland field soil treatment 1 day after sowing; 120 g/10a; evaluated 14 days after treatment
Procedure: as §1
as §2, with “One day” for “Seven days”, “7” for “8”

[14] = system: Chenopodium album; experiment: as above; conditions: upland field soil treatment 1 day after sowing; 120 g/10a; evaluated 14 days after treatment
Procedure: as §1
as §2, with “One day” for “Seven days”, “7” for “8”

[15] = system: crabgrass; experiment: as above; conditions: upland field soil treatment 1 day after sowing; 120 g/10a; evaluated 14 days after treatment
Procedure: as §1
as §2, with “One day” for “Seven days”, “7” for “8”

[16] = system: Echinochloa crus-galli; experiment: as above; conditions: upland field soil treatment 1 day after sowing; 120 g/10a; evaluated 14 days after treatment
Procedure: as §1
as §2, with “One day” for “Seven days”, “7” for “8”

Compound	herbicidal effect (weed suppression rate), Amaranthus viridis [1] [%]	herbicidal effect (weed suppression rate), Chenopodium album [2] [%]	herbicidal effect (weed suppression rate), Crabgrass [3] [%]	herbicidal effect (weed suppression rate), Echinochloa crus-galli [4] [%]	weed suppression rate, Lindemia pyxidaria [5] [%]	weed suppression rate, Scirpus juncoides [6] [%]	weed suppression rate, Monochoria vaginalis [7] [%]	weed suppression rate, Echinochloa crus-galli [8] [%]	weed suppression rate, Lindemia pyxidaria [9] [%]	weed suppression rate, Scirpus juncoides [10] [%]	weed suppression rate, Monochoria vaginalis [11] [%]	weed suppression rate, Echinochloa crus-galli [12] [%]	herbicidal effect (weed suppression rate), Amaranthus viridis [13] [%]	herbicidal effect (weed suppression rate), Chenopodium album [14] [%]	herbicidal effect (weed suppression rate), Crabgrass [15] [%]	herbicidal effect (weed suppression rate), Echinochloa crus-galli [16] [%]
Cc1ccc(N(C(=O)n2ncn(S(=O)(=O)C(C)C)c2=O)C(C)C)c(F)c1 [Compound 1-79]	90	80	90	80	80	90	80	90	80	90	80	90	90	80	90	80
CC(C)N(C(=O)n1ncn(S(=O)(=O)C(C)C)c1=O)c1cccnc1F [Compound 1-90]	50	70	90	90	90	90	80	100	90	90	90	100	90	90	100	100
CC(C)N(C(=O)n1ncn(S(=O)(=O)C(C)C)c1=O)c1ccc(Cl)cn1 [Compound 1-93]	0	0	90	90	100	90	80	90	100	90	90	100	80	40	90	90
CC(C)N(C(=O)n1ncn(S(=O)(=O)C(C)C)c1=O)c1ccc(Cl)nc1Cl [Compound 1-98]	90	80	90	80	90	90	90	100	80	90	90	100	90	80	90	80
CCC(C)S(=O)(=O)n1cnn(C(=O)N(c2ccc(F)cc2F)C(C)C)c1=O (centres unmarked) [Compound 1-101]	90	80	90	80	80	90	80	90	80	90	80	90	90	80	90	80
C=CS(=O)(=O)n1cnn(C(=O)N(c2ccc(F)cc2F)C(C)C)c1=O [Compound 1-142]	90	80	90	80	100	100	100	100	80	90	80	90	100	100	100	100
CC(C)N(C(=O)n1ncn(S(=O)(=O)C2CC2)c1=O)c1ccccc1F [Compound 1-169]	90	80	90	80	90	90	90	100	80	80	90	100	90	80	90	80
CC(C)N(C(=O)n1ncn(S(=O)(=O)C2CC2)c1=O)c1ccc(F)cc1 [Compound 1-171]	90	80	90	80	100	100	100	100	90	90	90	100	90	100	100	100
